Results on 4 compounds are retold here after patent publication US20210284621A1 (priority 2018, published 2021).

pEC50, pKi: −log10 of the molar value.

Assay [1] addresses T1, CB1 receptor (Homo sapiens, UniProt P21554). The assay is described as follows: cell-based. Further details: host or cells: PathHunter cell lines.
The target in assay [2] is T1, CB1 receptor. The assay is described as follows: CB1 competitive radioligand binding assay ([3H] SR141716A). Set-up: expressed in transfected cells; host or cells: Chem-1 cells. A digest of the protocol: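 Chem-1 cells expressing human recombinant CB1 incubated 90 min at 37° C with 2.0 nM [3H]SR141716A and compound at 0.5 μM (1% DMSO) in HEPES pH 7.4 buffer with MgCl2, CaCl2, 0.2% BSA. Read-out is % inhibition of radioligand binding.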

Assay [3] addresses T2, CB2 receptor (Homo sapiens, UniProt P34972). Put plainly: CB2 competitive radioligand binding assay ([3H] WIN-55,212-2). Set-up: expressed in transfected cells; host or cells: CHO-K1 cells. The settings on record: for Fold Selectivity (CB1/CB2): Table 3, ratio of Ki CB1/CB2. A digest of the protocol:
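Single-concentration displacement: 2.4 nM [3H]WIN-55,212-2 competed with 0.05 μM compound (1% DMSO) for 90 min at 37 °C on human CB2 expressed in CHO-K1 cells (HEPES 20 mM, pH 7.0, 0.5% BSA). Result given as % inhibition of bound radioligand.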

Assay [4] deals with T1, CB1 receptor. The assay is described as follows: cAMP Assay #2: Hit Hunter cAMP assay, Gi-coupled agonist activity, CB1. Format: cell-based. Further details: host or cells: PathHunter cell lines. (Cyclic AMP is a second messenger, typically raised through Gs and lowered through Gi signalling.)
Assay [5] deals with 12 systems of human primary cells. Put plainly: BioMAP Diversity PLUS phenotypic screen. As to conditions: 3.3 μM; for Immune modulation, cell surface and tissue remodeling biomarkers: changes at least 1.5-fold from vehicle control. Type of assay: cell-based. On the procedure: Compounds of the invention were assayed for their effects on 148 biomarkers of inflammation, immune modulation and tissue remodeling in the BioMAP® Diversity PLUS® (DiscoverX) platform designed to model aspects of human diseases in vitro (Kunkel 2004, Berg 2006, Melton 2013).
The example compounds (3.3 μM) in Table 8 induced increases or decreases in the levels of the indicated 20 biomarkers, which are at least 1.5-fold change from vehicle control and are outside the significance prediction envelop. All compounds presented in Table 8 were not cytotoxic at the concentration tested.

For assay [6], the target named is T2, CB2 receptor. Put plainly: cell-based. Further details: host or cells: cAMP Hunter cell lines. An outline of the steps: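 PathHunter β-Arrestin enzyme fragment complementation cells, EA-tagged β-Arrestin and PK-tagged receptor, exposed to compound for 90 to 180 minutes at 37° C. or room temperature, 1% vehicle. Chemiluminescence read 1 h after detection reagent; agonist % activity relative to vehicle and MAX control ligand.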

The target of assay [7] is T2, CB2 receptor. Put plainly: cAMP Assay #2: Hit Hunter cAMP assay, Gi-coupled agonist activity, CB2. Type of assay: cell-based. Further details: host or cells: cAMP Hunter cell lines. The settings on record: for CB2 fold selectivity: Hit Hunter cAMP, CB1 EC50 / CB2 EC50.
Assay [8] addresses T1, CB1 receptor. Put plainly: cAMP Assay #1: CB1 adenylylcyclase assay in CHO cells. Format: cell-based. Further details: expressed in transfected cells; host or cells: CHO cells. The protocol: (§1) Compounds of the invention were assayed in an adenylylcyclase assay to determine agonist activity on the CB1 and CB2 receptors, the results of which are provided in Table 4. Exemplary methods for the adenylylcyclase assay can be found in the literature, for example, in Rhee, M-H., et al. Cannabinol Derivatives: Binding to Cannabinoid Receptors and Inhibition of Adenylylcyclase. J Med Chem. 40: 3228-3233 (1997).
CB1 Activity as determined by Adenylylcyclase Assay: CB1 receptor agonist activity was measured by measuring cAMP production. A compound of the invention was incubated with CHO cells expressing human recombinant CB1 for 20 minutes at 37° C.
(§2) Determination of EC50 values: The EC50 values (concentration producing a half-maximal response) were determined by non-linear regression analysis of the concentration-response curves generated with mean replicate values using Hill equation curve fitting: Y=D+[(A−D)/(1+(C/C50)^nH)], where Y=response, A=left asymptote of the curve, D=right asymptote of the curve, C=compound concentration, and C50=EC50, and nH=slope factor. This analysis was performed using software developed at Cerep (Hill software) and validated by comparison with data generated by the commercial software SigmaPlot® 4.0 for Windows® (© 1997 by SPSS Inc.).

Assay [9] has as its target T2, CB2 receptor. The assay is described as follows: cAMP Assay #1: CB2 adenylylcyclase assay in CHO cells. Type of assay: cell-based. Set-up: expressed in transfected cells; host or cells: CHO cells. On the procedure: as §1
CB2 Activity as determined by Adenylylcyclase Assay: CB2 receptor agonist activity was measured by measuring cAMP production. A compound of the invention was incubated with CHO cells expressing human recombinant CB2 for 10 minutes at 37° C.
as §2

In the next assay the test system is LPS-induced PBMCs. Put plainly: Inflammatory cytokine release from LPS-induced PBMCs (Luminex). The settings on record: fold change from LPS-treated PBMCs, compounds 10 μM (DEX 1 μg/ml) 2 h, then LPS 0.1 μg/ml 24 h, negative = reduced. Type of assay: cell-based, human. An outline of the steps: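 Human PBMCs from healthy donors pretreated 2 hours with compound at 10 μM (triplicate), then stimulated with 0.1 μg/ml LPS for 24 hours. Supernatant cytokines measured by magnetic Luminex; values given as fold change versus LPS-treated PBMCs, negative meaning reduction; cytotoxicity also assessed.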

[10] abbreviates: PathHunter agonist mode, read-out: CB2 Activity (β-Arrestin).
Where [11] appears, read: OOR = out of standard curve range.

T1 sequence (P21554 whole entry): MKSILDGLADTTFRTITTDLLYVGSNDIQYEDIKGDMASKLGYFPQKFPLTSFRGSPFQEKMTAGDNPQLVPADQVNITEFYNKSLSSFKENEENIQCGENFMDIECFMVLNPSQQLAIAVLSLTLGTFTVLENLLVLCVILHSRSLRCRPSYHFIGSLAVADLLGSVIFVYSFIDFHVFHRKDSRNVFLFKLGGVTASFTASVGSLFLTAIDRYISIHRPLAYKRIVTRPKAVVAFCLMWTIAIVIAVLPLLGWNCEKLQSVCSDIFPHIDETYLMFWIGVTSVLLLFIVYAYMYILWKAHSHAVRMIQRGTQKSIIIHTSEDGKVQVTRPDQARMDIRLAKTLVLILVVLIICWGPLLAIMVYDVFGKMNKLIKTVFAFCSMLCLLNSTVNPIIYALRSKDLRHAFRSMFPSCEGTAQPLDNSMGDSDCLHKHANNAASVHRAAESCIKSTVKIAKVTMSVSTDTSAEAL
T2 sequence (P34972 whole entry): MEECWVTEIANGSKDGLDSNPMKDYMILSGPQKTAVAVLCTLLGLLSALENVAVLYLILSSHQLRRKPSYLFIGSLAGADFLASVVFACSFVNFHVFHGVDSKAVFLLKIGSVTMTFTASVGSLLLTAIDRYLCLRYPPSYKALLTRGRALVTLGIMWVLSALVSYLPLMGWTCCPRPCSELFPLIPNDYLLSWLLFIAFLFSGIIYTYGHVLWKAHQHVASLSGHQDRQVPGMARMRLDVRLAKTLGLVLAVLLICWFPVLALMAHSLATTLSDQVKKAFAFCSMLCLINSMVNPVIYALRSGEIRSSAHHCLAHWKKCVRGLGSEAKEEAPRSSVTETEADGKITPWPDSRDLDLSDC

For the compound `CCCCCCC(C)(C)c1cc(O)c2c(c1)OC(C)(C)[C@@H]1CC=C(C(=O)NC(C)(C)C(F)(F)F)C[C@@H]21` [Compound 100, (6aR,10aR)-1-hydroxy-6,6-dimethyl-3-(2-methyloctan-2-yl)-N-(1,1,1-trifluoro-2-methylpropan-2-yl)-6a,7,10,10a-tetrahydro-6H-benzo[c]chromene-9-carboxamide], the pEC50 at CB1 receptor [1] was 6.59; at CB1 receptor [4] it was 6.97; on CB2 receptor [6] (setting [10]), 8.92; at CB2 receptor [7] it was 8.68. Further, the values for the pKi at CB1 receptor [2] and on CB2 receptor [3] were 7.14 and 8.14, respectively. The “Fold Selectivity (CB1/CB2)” value at CB2 receptor [3] is 10.0. Also, the Anti-proliferation result in assay [5] (cell type in which anti-proliferative effect was seen) was “Dermal fibroblasts”. Moreover, the “Immune modulation, cell surface and tissue remodeling biomarkers” value (“Immune modulation” below) in [5] is “Reduced Eotaxin-3, P-selectin, and CD69,”. Further, the CB2 fold selectivity on CB2 receptor [7] is reported as 49.7.
As for `CCCCCCC(C)(C)c1cc(O)c2c(c1)OC(C)(C)c1ccc(C(=O)O)cc1-2` [Compound 31, 1-hydroxy-6,6-dimethyl-3-(2-methyloctan-2-yl)-6H-benzo[c]chromene-9-carboxylic acid], the pEC50 was < 5.52 on CB1 receptor [1]; < 7.00 at CB1 receptor [8]; 6.20 at CB1 receptor [4]; 6.96 on CB2 receptor [6] (setting [10]); 7.16 at CB2 receptor [7]; 7.28 on CB2 receptor [9]. Besides, the pKi on CB1 receptor [2] is < 5.52; at CB2 receptor [3] it was 5.69. This compound also registered an inhibition at 0.5 µM on CB1 receptor [2] (0.5 μM compound, 2.0 nM [3H] SR141716A, 90 min 37° C.) of 12%. This compound also came in with an inhibition at 0.05 µM on CB2 receptor [3] (0.05 μM compound, 2.4 nM [3H] WIN-55,212-2, 90 min 37° C.) of 20%. Besides, the “Immune modulation” value in [5] was “Reduced Eotaxin-3 and IP-10; increased MMP-1”. In addition, the CB2 fold selectivity on CB2 receptor [7] came to 9.3.
In the case of `CCCCCCC(C)(C)c1cc(O)c2c(c1)OC(C)(C)[C@@H]1CC=C(C(=O)NC3CCCC3)C[C@@H]21` [Compound 92, (6aR,10aR)-N-cyclopentyl-1-hydroxy-6,6-dimethyl-3-(2-methyloctan-2-yl)-6a,7,10,10a-tetrahydro-6H-benzo[c]chromene-9-carboxamide], the pEC50 was 7.76 on CB1 receptor [1], 7.54 on CB1 receptor [4], 8.85 at CB2 receptor [6] and 8.80 on CB2 receptor [7]. Further, the pKi at CB1 receptor [2] was 7.34; on CB2 receptor [3] it was 8.42. The “Fold Selectivity (CB1/CB2)” value at CB2 receptor [3] is recorded as 12.0. Further, the “Immune modulation” value in assay [5] is given as “Reduced P-selectin”. The same compound gave a CB2 fold selectivity on CB2 receptor [7] of 17.7.
As for `CCCCCCC(C)(C)c1cc(O)c2c(c1)OC(C)(C)[C@@H]1CC=C(C(=O)NC(C)C)C[C@@H]21` [Compound 91, (6aR,10aR)-1-hydroxy-N-isopropyl-6,6-dimethyl-3-(2-methyloctan-2-yl)-6a,7,10,10a-tetrahydro-6H-benzo[c]chromene-9-carboxamide], in the assay with LPS-induced PBMCs, the IL17A is given as 1.2 fold change, the IL-1β is reported as −1.4 fold change, the IL-4 was −1.6 fold change and the IL-6 is recorded as −2.2 fold change. For the same compound, in the assay with LPS-induced PBMCs, the IL-8 is given as −1.3 fold change, the IL-10 is −2.3 fold change, the MCP-1 is given as −1.4 fold change and the TNFα was −1.2 fold change. In the assay on LPS-induced PBMCs (setting [11]), the “IL-12 (p70)” value was −1.7 fold change and the L-31 was −2.1 fold change. This compound also showed a pEC50 at CB1 receptor [1] of 7.68. At CB1 receptor [2], this compound showed a pKi of 7.46. At CB2 receptor [3], the pKi is 8.49 and the “Fold Selectivity (CB1/CB2)” value is recorded as 10.9. The compound further had a pEC50 at CB1 receptor [4] of 8.16. Also, the “Immune modulation” value in assay [5] is “Reduced Eotaxin-3, P-selectin, CD69, and EGFR, IL-10”. The pEC50 at CB2 receptor [6] is 8.77. Also, on CB2 receptor [7], the pEC50 is 8.82 and the CB2 fold selectivity amounted to 4.5.

Broadly, the pKi is the negative decadic logarithm of the Ki, by convention in mol/L. Lower therefore signals a high Ki. As a reminder, the inhibition is the relative decrease from the control value, in per cent. The low end stands for little suppression, the high end for strong suppression.
